Experimental data from US8951960B2, “Synergistic combination of DBNPA and polycyclic antibacterial peptide as biocide in bioethanol production” (Buckman Laboratories International, Inc., priority 2010, dated 2015).

Legend:
[1] = test system: yeast (Saccharomyces cerevisiae); experiment: Effect of biocide on fermentation yeast in corn fermentation; format: cell-based
Protocol: (§1) Experiments were conducted to evaluate the effectiveness of a nonoxidizing biocide as an antimicrobial agent for control of Lactobacillus infections in ethanol fermentation. The nonoxidizing biocide was BRONAM® 20 (20% 2,2-dibromo-3-nitrilopropionamide). The lactobacilli was L. plantarum. The yeast was Saccharomyces cereviseae. Corn mashes containing approximately 30% (w/w) dry solids were used.
A 0.2-g/ml suspension of yeast (Saccharomyces cerevisiae; Ethanol Red; Fermentis, Marcq-en-Baroeul, France) was prepared in a sterile 250-ml flask. This suspension was incubated and mixed for 20 minutes at 40° C. before inoculation into the fermentation flasks. […]
Each flask was mixed with an overhead agitator and samples were collected for the following measurements: yeast cell counts, final concentrations of substrates (glucose, DP2, DP3, and DP4+, where “DPx” represent glucose oligomers with “x” subunits), fermentation products (ethanol, glycerol, lactic acid, and acetic acid), total dry solids, and dissolved dry solids, and the density of the beer liquid phase. […] Samples were prepared for yeast cell counts by diluting at a factor of 100 in deionized water and staining with methylene blue to estimate viability then counted microscopically using a hemacytometer. The final concentrations of substrates and fermentation products were determined by HPLC. […]

[2] = Persistence of intact biocide under fermentation tank conditions; format: physicochemical; conditions: conditions in the fermentation tank; based on laboratory work
Protocol: Under the conditions in the fermentation tank, DBNPA is expected to last intact only about 1-2 hours, based on laboratory work. The stillage, i.e., fermented unevaporated product (post “beer tank”) of distillation, is centrifuged, and dried (e.g., about 1 hour at about 250-300° F.), then the mixture is pumped over to a final tank where it is called the DDGS. DDGS is about ⅓ mass of the starting raw material for corn. The chemistry of DBNPA is not expected to endure and survive the centrifugation and heat of drying prior to entering distillers dried grains with solubles (DDGS) stage. In the corn-to-ethanol process, for example, DBNPA is expected to degrade to carbon dioxide and water vapor, and, as such, would have low environmental impact. […] The application of DBNPA avoids the use of antibiotics, which can remain stable throughout the process. The use of DBNPA makes the use of antibiotics unnecessary. The use of DBNPA is more economical since the cost of antibiotics (as the only treatment widely employed) can be relatively high and costly to the fermentation. […]

[3] = test system: Lactobacillus plantarum; experiment: Corn mash ethanol fermentation infected with L. plantarum, treated with nonoxidizing biocide; format: cell-based; conditions: fermentation conditions typical of fuel-ethanol industry
Protocol: as §1
For slurry preparation, the moisture of ground corn was determined gravimetrically using a moisture balance by measuring the mass loss that occurred upon drying. The amount of corn, deionized (DI) water, and enzyme needed to prepare 160 g of corn slurry at a total dry solids concentration of 30% (w/w) for each replicate was determined. […]
For fermentation, once the mash was cooled, the entire contents (approximately 160 g) of each Labomat beaker were transferred to a sterile 250-ml Erlenmeyer flask. The masses of the mash and flasks were recorded, and the mass of mash transferred to the fermentation flasks was calculated. […]
The L. plantarum culture was prepared for inoculation by growing throughout the day in 100-ml of MRS broth. […] The initial concentration of the bacteria was determined by plating serial dilutions of the culture on MRS agar containing cycloheximide and incubating at 32° C. for 2 days before counting colonies. […]

[4] = test system: Lactobacillus fermentans; experiment: Kull synergism test in 25% strength MRS broth, quantities producing endpoints; format: cell-based; conditions: Nisin alone, 37° C., 24 hours
Protocol: Lactobacilli MRS broth (25% strength) was prepared and dispensed in 10 ml amounts into test tubes and autoclaved for 20 minutes at 121° C. The biocides were added to the test tubes in the desired concentrations, and then 100 microliters of an overnight broth of Lactobacillus fermentans were added to the respective test tubes and incubated at 37° C. for 24 hours.
When the sum of QA/Qa and QB/Qb is greater than one, antagonism is indicated and when the sum is equal to one, additivity is indicated. When the sum of this value is less than one, synergism exists.

Row | Molecule | effect on yeast [1] | time the biocide lasts intact [2] [h] | effect on lactobacilli [3] | Qa, concentration of Compound A acting alone which produced an endpoint ([4]; Example 2) [ppm] | Qa, concentration of Compound A acting alone which produced an endpoint ([4]; Example 3) [ppm]
1 | N#CC(Br)(Br)C(N)=O [2,2-dibromo-3-nitrilopropionamide] | does not kill the yeast | 1 to 2 | kills the bacteria (lactobacilli) |  | 
2 | Nisin |  |  |  | 1.0 | 1.0
